Data as given in PMC3102704, “New Classes of Alanine Racemase Inhibitors Identified by High-Throughput Screening Show Antimicrobial Activity against Mycobacterium tuberculosis” (PLoS ONE, 2011).
Values after ≈ are worked out from the molar mass of the structure shown. Values joined by “and” are separate entries in the source; they are usually repeats but may differ in a detail not shown here. Equal values may be shown once. Read-outs that look alike come from different tables or passages of the source.

Columns and labels:
HeLa cells = experiment: Compound cytotoxicity, WST-1 Cell Proliferation Reagent; type: cell-based; conditions: for TC50, cytotoxicity in HeLa cells: 48 hours exposure, WST-1
Method: HeLa cells were grown to confluence overnight (37°C, 5% CO2) in Dulbecco's Modified Eagle Medium with 10% fetal bovine serum (Invitrogen, Carlsbad, CA). The following day, 3000 cells were plated into each well of a 96-well plate and grown overnight. Compounds were diluted in culture medium and added to the cells to yield final concentrations of 100, 50, 25, 12.5, and 6.25 µg/ml. The cells were exposed to the compounds for 48 hours, after which the effect on cells was determined using the WST-1 Cell Proliferation Reagent (Roche Applied Science, Indianapolis, IN) according to manufacturer's protocols. Absorbance at 450 nm was used to calculate percent cytotoxicity with respect to a DMSO solvent control. The results were fitted onto a sigmoidal dose-response curve using Prism software to calculate the TC50 (compound concentration that causes 50% cell death).

[1] = biological target: T1, M. tuberculosis alanine racemase (Mycobacterium tuberculosis, UniProt P9WQA9); type: binding; conditions: 4 µM alanine racemase with 1 mM inhibitor
Method: Electrospray ionization mass spectrometry (ESMS) was performed to detect direct interactions of inhibitors with enzyme. A mixture of 15 µl of sample (4 µM alanine racemase with 1 mM inhibitors) was diluted with 15 µl 2% acetonitrile/0.1% formic acid. Samples were then de-salted using C4 ZipTip, eluted into 15 µl 60% acetonitrile/0.1% formic acid, and directly injected into Qtof-micro MS instrument (Waters Corp., Milford, MA).

M. tuberculosis H37Rv [2] = experiment: Microbroth dilution MIC determination; type: cell-based, Mycobacterium tuberculosis; conditions: for MIC: M. tuberculosis H37Rv, microbroth dilution, 21 days, read-out: MIC against M. tuberculosis
M. tuberculosis H37Rv [3] = experiment: Antimicrobial susceptibility in BACTEC MGIT 960 system; type: cell-based, Mycobacterium tuberculosis; conditions: for Mtb: antimicrobial activity against M. tuberculosis / Mtb: antimicrobial activity against M. tuberculosis (supplement table): M. tuberculosis H37Rv, BACTEC, 50 and 100 µg/ml; for Growth inhibition of M. tuberculosis H37Rv in BACTEC culture tubes: final concentration of 50 and 100 µg/ml
[4] = biological target: T1, M. tuberculosis alanine racemase; experiment: biochemical; type: biochemical; conditions: D-alanine 0.5-2.5 mM, inhibitor 0.01 to 0.98 mM
[5] = biological target: T1, M. tuberculosis alanine racemase; experiment: biochemical; conditions: 30-minute pre-incubation with inhibitor, triplicate
[6] = Mycobacterium tuberculosis, 504 h

T1 sequence (P9WQA9 whole entry): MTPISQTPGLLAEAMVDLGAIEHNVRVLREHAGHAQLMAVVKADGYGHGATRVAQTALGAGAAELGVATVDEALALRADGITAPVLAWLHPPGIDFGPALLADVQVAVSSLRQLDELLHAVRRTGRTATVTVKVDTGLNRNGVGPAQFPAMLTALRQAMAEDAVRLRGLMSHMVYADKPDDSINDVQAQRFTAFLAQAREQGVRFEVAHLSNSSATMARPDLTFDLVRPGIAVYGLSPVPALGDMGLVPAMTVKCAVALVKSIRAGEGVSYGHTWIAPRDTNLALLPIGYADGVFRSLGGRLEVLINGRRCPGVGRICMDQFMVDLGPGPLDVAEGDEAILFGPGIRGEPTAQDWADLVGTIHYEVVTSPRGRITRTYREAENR

| Compound | TC50, cytotoxicity in HeLa cells (HeLa cells) [µM] | Nature of inhibitor-enzyme interaction by ESMS [1] | MIC (M. tuberculosis H37Rv [2]) [µM] | Mtb: antimicrobial activity against M. tuberculosis (M. tuberculosis H37Rv [3]) | Mtb: antimicrobial activity against M. tuberculosis (supplement table) (M. tuberculosis H37Rv [3]) | Growth inhibition of M. tuberculosis H37Rv in BACTEC culture tubes (M. tuberculosis H37Rv [3]) | Ki [4] [µM] | IC50 [5] [µM] | Cytotoxicity relative to MIC (HeLa cells; compared with MIC against M. tuberculosis) | MIC (M. tuberculosis H37Rv [2]; [6]) | Increase in the MIC in the presence of D-alanine (M. tuberculosis H37Rv [2]; 5 mM D-alanine in the growth medium, data not shown) [fold] |
| --- | --- | --- | --- | --- | --- | --- | --- | --- | --- | --- | --- |
| CCOc1ccc(CCNC(=O)Cn2sc3nc(C)cc(C)c3c2=O)cc1 [L2-13, 2-(4,6-dimethyl-3-oxo-[1], [2]thiazolo[5,4-b]pyridin-2-yl)-N-[2-(4-ethoxyphenyl)ethyl]acetamide] | 36.4 | irreversible | 16.2 (≈ 6.24 µg/mL) | + | + | inhibited growth at both concentrations | 930 | 7.7 |  |  |  |
| CNC(=O)COc1ccccc1O [L2-15, 2-(2-hydroxyphenoxy)-N-methylacetamide] |  |  |  | − | - |  |  | 5.7 |  |  |  |
| O=C(O)CSC(=S)Nc1cccnc1 [L2-11, 2-(pyridin-3-ylcarbamothioylsulfanyl)acetic acid] |  |  |  | − | - |  |  | 13.1 |  |  |  |
| O=C(COc1ccccc1O)NO [L2-03, N-hydroxy-2-(2-hydroxyphenoxy)acetamide] |  |  |  | − | - |  |  | 8.2 |  |  |  |
| O=C1Nc2ccccc2C(=O)C1(O)O [L2-16, 3,3-dihydroxy-1H-quinoline-2,4-dione] | 33.7 | reversible |  | + | + | inhibited growth at both concentrations | 20 | 5.2 | cytotoxic at slightly above its MIC | 32.4 µM (≈ 6.26 µg/mL) |  |
| COc1ccc(CC(=S)N2CCOCC2)cc1 [L2-09, 2-(4-methoxyphenyl)-1-morpholin-4-ylethanethione] |  |  |  | − | - |  |  | 3.3 |  |  |  |
| CCOC(=O)CCSc1ccccn1 [L2-04, ethyl 3-(pyridin-2-ylthio)propanoate] | 229.8 | reversible |  | + | + | inhibited growth at both concentrations | 38 | 2.6 |  | 59 µM (≈ 12.5 µg/mL) |  |
| CN(C)NS(=O)(=O)c1ccc2c(c1)Cc1cc(S(=O)(=O)NN(C)C)ccc1-2 [L2-02, 2-N′,2-N′,7-N′,7-N′-tetramethyl-9H-fluorene-2,7-disulfonohydrazide] |  |  |  | − | - |  |  | 1.6 |  |  |  |
| N[C@@H]1CONC1=O [CS, (4R)-4-amino-3-isoxazolidinone, reference compound] | 203 | irreversible modification of the enzyme |  | + | + |  |  |  |  | 6.5 µg/mL and 65 µM | 3 |
| S=C(Cc1ccccc1)N1CCCCC1 [L2-12, 2-phenyl-1-piperidin-1-ylethanethione] | 406 | irreversible |  | + | + | inhibited growth at both concentrations | 80 | 6 |  | 28.6 µM (≈ 6.27 µg/mL) |  |
| COc1ccc(NC(=O)c2nc(S(C)(=O)=O)ncc2Cl)cc1Cl [L2-06, 5-chloro-N-(3-chloro-4-methoxyphenyl)2(methylsulfonyl)pyrimidine-4carboxamide] | 18.8 | irreversible |  | + | + | inhibited growth at both concentrations | 760 | 8.2 |  | < 4.5 µM |  |
| COC(=O)c1cccc(C(=O)Oc2ccc(OC(=O)c3cccc(C(=O)OC)n3)c(Cl)c2)n1 [L2-10, 6-O-[3-chloro-4-(6-methoxycarbonylpyridine-2-carbonyl)oxyphenyl]2-O-methyl pyridine-2,6-dicarboxylate] | 157.2 | not definitive | 13.6 (≈ 6.4 µg/mL) | + | + | inhibited growth at both concentrations | 680 | 1 |  |  |  |
| CS(=O)(=O)c1ncc(Cl)c(C(=O)NCc2ccccc2)n1 [L2-05, N-benzyl-5-chloro-2-methylsulfonylpyrimidine-4-carboxamide] | 20 | irreversible |  | + | + | inhibited growth at both concentrations | 630 | 6.8 |  | 9 µM (≈ 2.93 µg/mL) |  |
| 2-(hydoxyimino)-6-methyl-2H-benzopyran-3-carboxamide [L2-14] |  |  |  | − | - |  |  | 2.8 |  |  |  |
| Cc1ccc(CC(=S)N2CCOCC2)cc1 [L2-07, 2-(4-methylphenyl)-1-morpholin-4-ylethanethione] |  |  |  | − | - |  |  | 6.5 |  |  |  |
| Cc1ccc(S(=O)(=O)NN(C)C)cc1 [L2-01, N′,N′,4-trimethylbenzenesulfonohydrazide] |  |  |  | − | - |  |  | 9 |  |  |  |
| O=C(c1cccs1)c1no[n+]([O-])c1C(=O)c1cccs1 [L2-18, 1,1′-(2-oxido-1,2,5-oxadiazole-3,4-diyl)-bis (1-(2-thienyl))-methanone] |  |  |  | − | - |  |  | 4.9 |  |  |  |
